Two compounds from patent publication US20210113696A1, “IONIC LIQUID COMPOSITIONS FOR TREATMENT OF ROSACEA” (CAGE BIO INC., priority 2018, published 2021) can be followed below.

SMILES strings stand for the structures.

A short description of data set [1]: Visual observation of appearance (solubility, miscibility) in solvents, solvent blends and gel bases. Type of data set: physicochemical. The protocol: Conductivity in mixtures of a solvent in combination with choline and geranic acid were done separately.
Propylene glycol: Samples were made by first starting with 5 grams of each raw material; geranic acid first then repeated with choline (bicarbonate). In summary 1-3 grams of propylene glycol was added to the raw material being tested and mixed. A visual observation was made along with a conductivity measurement.
Ethanol: Samples were made by first starting with 5 grams of each raw material; geranic acid first then repeated with choline (bicarbonate). In summary 1-3 grams of propylene glycol was added to the raw material being tested and mixed. A visual observation was made along with a conductivity measurement.
Diisopropyl adipate: Samples were made by first starting with 5 grams of each raw material; geranic acid first then repeated with choline (bicarbonate). In summary, 1-3 grams of […] was added to the raw material being tested and mixed. A visual observation was made along with a conductivity measurement.
(§1) The solvents investigated included: water, propylene glycol, glycerin, PEG400, ethanol, diisopropyl adipate, mineral oil, propylene glycol/ethanol/water, and glycerin/PEGG400/water. […] Observations were taken at each concentration. Conductivity measurements were taken at each titrated point for information only at this stage. Scales on subsequent graphs are appropriate for each solvent's values.
No conductivity measurements were taken.
(§2) A visual observation was made along with a conductivity measurement. The process was continued until ˜25 grams of product was reached. The resulting product was stored for later evaluation.
as §2, §2, §2, §2, §2
1-3 grams of water was added and mixed. A visual observation was made along with a conductivity measurement. The process was continued until ˜16 grams of product was reached. The resulting product was stored for later evaluation.
1-3 grams of water was added and mixed. A visual observation was made along with a conductivity measurement. The process was continued until ˜20 grams of product was reached. The resulting product was stored for later evaluation. […]
A similar experiment with the propylene glycol formulation was performed. The results are shown in Table 23, Table 24, and FIG. 28.
(§3) The conductivity is shown in FIG. 32 and the appearance is described in Table 28.

Data set [2] can be described thus: Conductivity measurement in solvents, solvent blends and gel bases. Type of data set: physicochemical. The protocol: Conductivity in mixtures of a solvent in combination with choline and geranic acid were done separately. […]
Ethanol: Samples were made by first starting with 5 grams of each raw material; geranic acid first then repeated with choline (bicarbonate). In summary 1-3 grams of […] was added to the raw material being tested and mixed. A visual observation was made along with a conductivity measurement. […]
as §1, §2, §2, §2, §2, §2
A visual observation was made along with a conductivity measurement. The process was continued until ˜25 grams of product was reached. The resulting product was stored for later evaluation. […]
as §3

[3] abbreviates: 19% geranic acid, 81% ethanol 200 proof.
Setting [4] is: 20% geranic acid, 80% ethanol 200 proof.
The mark [5] stands for this setting: 22% geranic acid, 78% ethanol 200 proof.
Where [6] appears, read: 24% geranic acid, 76% ethanol 200 proof.
The mark [7] stands for this setting: 26% geranic acid, 74% ethanol 200 proof.
Where [8] appears, read: 29% geranic acid, 71% ethanol 200 proof.
Setting [9] is: 33% geranic acid, 67% ethanol 200 proof.
The mark [10] stands for this setting: 36% geranic acid, 64% propylene glycol.
Where [11] appears, read: 38% geranic acid, 62% ethanol 200 proof.
[12] abbreviates: 45% geranic acid, 55% ethanol 200 proof.
Setting [13] is: 56% geranic acid, 44% ethanol 200 proof.
Where [14] appears, read: 56% geranic acid, 44% propylene glycol.
[15] abbreviates: 71% geranic acid, 29% ethanol 200 proof.
The mark [16] stands for this setting: 71% geranic acid, 29% propylene glycol.
Setting [17] is: 71.43% geranic acid, 28.57% diisopropyl adipate.
The mark [18] stands for this setting: 83% geranic acid, 17% ethanol 200 proof.
Setting [19] is: 83% geranic acid, 17% propylene glycol.
[20] abbreviates: 83.33% geranic acid, 16.67% diisopropyl adipate.
Where [21] appears, read: 100.00% geranic acid, 0.00% diisopropyl adipate.
Setting [22] is: 100% geranic acid, 0% ethanol 200 proof.
Setting [23] is: 100% geranic acid, 0% propylene glycol.

For `C[N+](C)(C)CCO` [Choline Bicarbonate, choline bicarbonate], the “miscibility with diisopropyl adipate” value in data set [1] is recorded as “not miscible”.
As to `CC(C)=CCC/C(C)=C/C(=O)O` [Geranic Acid, 3,7-dimethyl-2,6-octadienoic acid], the Conductivity in data set [2] (setting [3]) is 0.00064 mS/cm; in data set [2] (setting [4]), 0.00064 mS/cm; in data set [2] (setting [5]), 0.00066 mS/cm; in data set [2] (setting [6]) it was 0.00068 mS/cm; in data set [2] (setting [7]), 0.00072 mS/cm; in data set [2] (setting [8]), 0.00074 mS/cm. Also, the Conductivity came out at 0.00083 mS/cm in data set [2] (setting [9]); 0.00009 mS/cm in data set [2] (setting [10]); 0.00061 mS/cm in data set [2] (setting [11]); 0.00048 mS/cm in data set [2] (setting [12]); 0.00022 mS/cm in data set [2] (setting [13]); 0.00008 mS/cm in data set [2] (setting [14]). Further, the Conductivity was found to be 0.00003 mS/cm in data set [2] (setting [15]); 0.00008 mS/cm in data set [2] (setting [16]); 0 mS/cm in data set [2] (setting [17]); 0.00001 mS/cm in data set [2] (setting [18]); 0.00000 mS/cm in data set [2] (setting [19]); 0 mS/cm in data set [2] (setting [20]). For the same compound, the Conductivity in data set [2] (setting [21]) amounted to 0 mS/cm; in data set [2] (setting [22]), 0.00000 mS/cm; in data set [2] (setting [23]), 0.00000 mS/cm. For the same compound, in data set [2] (mixtures with solvent), the “contribution to the overall conductivity” value is on record as “effectively zero”. Moreover, the Appearance result in data set [1] (setting [3]), in data set [1] (setting [4]), in data set [1] (setting [5]), in data set [1] (setting [6]), in data set [1] (setting [7]) and in data set [1] (setting [8]) was “Clear solution” in each case. Besides, the Appearance result in data set [1] (setting [9]), in data set [1] (setting [10]), in data set [1] (setting [11]), in data set [1] (setting [12]), in data set [1] (setting [13]) and in data set [1] (setting [14]) was “Clear solution” throughout. For the same compound, the Appearance result in data set [1] (setting [15]), in data set [1] (setting [16]), in data set [1] (setting [17]), in data set [1] (setting [18]), in data set [1] (setting [19]) and in data set [1] (setting [20]) was “Clear solution” throughout. Moreover, the Appearance entry in data set [1] (setting [21]), in data set [1] (setting [22]) and in data set [1] (setting [23]) was “Clear solution” throughout.
